Experimental data taken from patent US4806604A, “Photosensitive calcium chelators” (Regents of the University of California, priority 1987, dated 1989).
Where two headings read alike, the source gives them in different places.

Experiments:
[1] = EDTA analogs vs EDTA parent; cited from earlier work
[2] = cytosolic free calcium 2+ typical for resting cells; cited from earlier work
[3] = Tsien, 1980; read-out: Kd (Ca^2+); cited from earlier work
[4] = Ca^2+ affinity (dissociation constant) of the chelators; format: binding; settings: for Ca^2+ affinity (rank in words): conformational explanation of Table I
[5] = Mg^2+ affinity (dissociation constant) of the chelators; format: binding
[6] = Release of Ca^2+ after flash photolysis; settings: after a submillisecond light flash
[7] = Ca^2+:Mg^2+ selectivity (rejection of Mg^2+); format: binding; settings: 22° C., 0.1M ionic strength

O=C(O)CN(CC(=O)O)[C@H]1CCCC[C@@H]1N(CC(=O)O)CC(=O)O (relative stereo) [trans-cyclohexanediyl analog]
stronger Ca^2+ affinity than the parent [1]: 324 -fold

O=C(O)CN(CC(=O)O)[C@@H]1CCCC[C@@H]1N(CC(=O)O)CC(=O)O [cis-cyclohexanediyl analog]
weaker Ca^2+ affinity than the parent [1]: 17 -fold

O=C(O)CN(CC(=O)O)[C@H]1CCC[C@@H]1N(CC(=O)O)CC(=O)O (relative stereo) [trans-cyclopentanediyl analog]
higher affinity for Ca^2+ than the parent [1]: 3.7 -fold

COC(c1ccc(N(CC(=O)O)CC(=O)O)c(OCCOc2cc(C)ccc2N(CC(=O)O)CC(=O)O)c1)c1cc2c(cc1[N+](=O)[O-])OCO2 (stereo not drawn) [nitr-2]
fraction of unphotolyzed chelator molecules bearing calcium 2+ ions [2]: 1/2

O=C(O)CN(CC(=O)O)c1ccccc1OCCOc1ccccc1N(CC(=O)O)CC(=O)O [BAPTA, 1,2-bis(2-aminophenoxy)ethane N,N,N'N'-tetraacetic acid]
Kd [3]: 100 nM

Cc1ccc(N(CC(=O)O)CC(=O)O)c(O[C@@H]2CCC[C@@H]2Oc2ccccc2N(CC(=O)O)CC(=O)O)c1 (relative stereo) [Va]
Kd ([4]; Table I, Chelator V after saponification, before photolysis, read-out: Kd for Ca^2+): 20 nM
Ca^2+ affinity (rank in words) [4]: highest Ca^2+ affinities
higher affinity for Ca^2+ than the trans-isomer ([4]; cyclopentanediyl series, cis (Va) vs trans (Vb)): 300 -fold
Kd ([5]; Table I, Chelator V after saponification, read-out: Kd for Mg^2+): 4.2 mM

Cc1ccc(N(CC(=O)O)CC(=O)O)c(O[C@H]2CCC[C@H]2Oc2cc(C(O)c3cc4c(cc3[N+](=O)[O-])OCO4)ccc2N(CC(=O)O)CC(=O)O)c1 (relative stereo) [nitr-7, cis-1-(2-bis(carboxymethyl)amino-5-(1-hydroxy-1-(2-nitro-4,5-methylenedioxyphenyl)methyl)phenoxy)-2-(2-bis(carboxymethyl)amino-5-methylphenoxy)cyclopentane]
Kd ([4]; 22° C., 0.1M ionic strength, before photolysis, read-out: dissociation constant for Ca^2+): 53 nM
Ca^2+ affinity (rank in words) [4]: highest Ca^2+ affinities
exponential time constant of Ca^2+ release [6]: 1.8 millisecond
Rejection of Mg^2+ [7]: > 10^5
Kd ([5]; 22° C., 0.1M ionic strength, read-out: dissociation constant for Mg^2+): 5.7 mM

Cc1ccc(N(CC(=O)O)CC(=O)O)c(O[C@@H]2CCC[C@@H]2Oc2cc(C(=O)c3cc4c(cc3N=O)OCO4)ccc2N(CC(=O)O)CC(=O)O)c1 (relative stereo) [VIII]
Kd ([4]; after photolysis of nitr-7 to the nitrosobenzophenone, read-out: dissociation constant for Ca^2+ upon photolysis): 3000 nM
